This is an account of results in ChEMBL document CHEMBL1158845, “Antineoplastic agents. 386. Isolation of sesterstatins 1-3 from the marine sponge Hyrtios erecta” (1998).

Experiment [1] has as its system Neisseria gonorrhoeae. Kind of experiment: Antibacterial activity against Neisseria gonorrhoeae at 100 ug/disk by disk susceptibility test. Type of experiment: functional, organism-based.
Experiment [2] has as its system Micrococcus luteus. As to the kind of experiment: Antibacterial activity against Micrococcus luteus at 100 ug/disk by disk susceptibility test. The experiment is classed as functional, organism-based.
The test system of experiment [3] is Staphylococcus aureus. Kind of experiment: Antibacterial activity against Staphylococcus aureus at 100 ug/disk by disk susceptibility test. Type of experiment: functional, organism-based.
The test system of experiment [4] is P388. Kind of experiment: Cytotoxicity against mouse P388 cells. Type of experiment: functional. The settings on record: read-out: ED50 (the source's name).
Experiment [5] deals with Cryptococcus neoformans. Kind of experiment: Antimicrobial activity against Cryptococcus neoformans at 100 ug/disk by disk susceptibility test. Type of experiment: functional, organism-based.
Experiment [6] deals with Staphylococcus aureus. Kind of experiment: Antibacterial activity against Staphylococcus aureus by disk susceptibility test. The experiment is classed as functional.

SMILES strings stand for the structures. Converted amounts (≈) assume the structure as drawn. The source made the active and inactive calls. The rule behind the calls is not given here.

In the case of `CC1(C)[C@@H](O)CC[C@]2(C)[C@H]3C[C@@H](O)[C@]4(C)C5=C(CC[C@H]4[C@]3(C)CC[C@@H]12)COC5=O` [SESTERSTATIN 1], the outcome in experiment [1], in experiment [2], in experiment [3] and in experiment [5] was inactive. In experiment [4], the EC50 stood at 0.46 µg/mL (≈ 1.14 µM).

`C[C@@]1(CO)CCC[C@]2(C)[C@H]3C[C@@H](O)[C@]4(C)C5=C(CC[C@H]4[C@]3(C)CC[C@@H]12)COC5=O` [SESTERSTATIN 3]: the outcome in experiment [1], in experiment [2], in experiment [3] and in experiment [5] was inactive. Also, the EC50 in experiment [4] came out at 4.3 µg/mL (≈ 10.7 µM).

As to `C[C@]1(CO)CCC[C@]2(C)[C@H]3C[C@@H](O)[C@]4(C)C5=C(CC[C@H]4[C@]3(C)CC[C@@H]12)COC5=O` [SESTERSTATIN 2], the result in experiment [1], in experiment [2] and in experiment [5] was inactive. Further, the EC50 in experiment [4] worked out at 4.2 µg/mL (≈ 10.4 µM). In addition, the MIC in experiment [6] is 50 µg.
